Source: US11241436B2, “Autophagy inducers for treatment of CNS conditions” (Northwestern University, priority 2017, dated 2022)

test system: LC3; assay: Promega Autophagy Assay System (HiBiT-tagged LC3 reporter, autophagy flux); assay type: cell-based; details: LC3 reporter signal; decrease = increased autophagy
Text: The Promega Augophagy Assay System uses LC3 to monitor the autophagy process. […] LgBiT is a […] recombinant protein derived from NanoLuc. When HiBiT associates with LgBiT, a strong luciferase activity is reconstituted. An increase in autophagy will accelerate the degradation of LC3 reporter which decreases the assay signal. In contrast, inhibition of autophagy causes the accumulation of LC3 which will increase the reporter levels and assay signal.

| Compound | AC50 [µM] |
| --- | --- |
| N=c1c2c(-c3ccccc3)c(-c3ccccc3)n(CCc3ccccc3)c2ncn1CC1CCOC1 (stereo not drawn) | 9.2 |
| N=c1c2c(-c3ccccc3)c(-c3ccccc3)n(Cc3ccc(OC(F)(F)F)cc3)c2ncn1C1CCOCC1 | 9.2 |
| N=c1c2c(-c3ccccc3)c(-c3ccccc3)n(Cc3ccc(OC(F)(F)F)cc3)c2ncn1CC1CCOCC1 | 9.2 |
| N=c1c2c(-c3ccccc3)c(-c3ccccc3)n(Cc3ccc(OC(F)(F)F)cc3)c2ncn1CCCO | 9.2 |
| N=c1c2c(-c3ccccc3)c(-c3ccccc3)n(Cc3ccccc3)c2ncn1CCCCCO | 10.3 |
| CN(C)CCn1cnc2c(c(-c3ccccc3)c(-c3ccccc3)n2Cc2ccccc2)c1=N | 10.3 |
| N=c1c2c(-c3ccccc3)c(-c3ccccc3)n(CCc3ccccc3)c2ncn1CCCCO | 10.3 |
| COc1ccc(Cn2c(-c3ccccc3)c(-c3ccccc3)c3c(=N)n(CCCCO)cnc32)cc1 | 10.3 |
| N=c1c2c(-c3ccccc3)c(-c3ccccc3)n(CCc3ccccc3)c2ncn1CC1CCOCC1 | 10.3 |
| N=c1c2c(-c3ccccc3)c(-c3ccccc3)n(Cc3ccccc3)c2ncn1CC1CCOCC1 | 10.3 |
| N=c1c2c(-c3ccccc3)c(-c3ccccc3)n(CC3CC3)c2ncn1CCCO | 10.3 |
| N=c1c2c(-c3ccccc3)c(-c3ccccc3)n(CC3CCCCC3)c2ncn1C1CCOCC1 | 10.3 |
| COCCn1cnc2c(c(-c3ccccc3)cn2Cc2ccccc2)c1=N | 11.6 |
| N=c1c2c(-c3ccccc3)c(-c3ccccc3)n(Cc3ccccc3)c2ncn1CCCCO | 11.6 |
| CC[Si](CC)(CC)OCCCn1cnc2c(c(-c3ccccc3)cn2Cc2ccc(Br)cc2)c1=N | 13 |
| COCCn1cnc2c(c(-c3ccccc3)c(-c3ccccc3)n2Cc2ccccc2)c1=N | 13 |
| N=c1c2c(-c3ccccc3)c(-c3ccccc3)n(Cc3ccccc3)c2ncn1CCN | 13 |
| N=c1c2c(-c3ccccc3)c(-c3ccccc3)n(CCc3ccccc3)c2ncn1CCCCCO | 13 |

| Compound | AC50 [µM] |
| --- | --- |
| CCOC(CCCn1cnc2c(c(-c3ccccc3)c(-c3ccccc3)n2CCc2ccccc2)c1=N)OCC | 13 |
| COC(=O)c1cccc(Cn2cnc3c(c(-c4ccccc4)c(-c4ccccc4)n3CCc3ccccc3)c2=N)c1 | 13 |
| N=c1c2c(-c3ccccc3)c(-c3ccccc3)n(Cc3ccccc3)c2ncn1C[C@@H]1CCCC[C@H]1O | 13 |
| COc1ccc(-c2c(-c3ccc(OC)cc3)n(Cc3ccccc3)c3ncn([C@H]4CC[C@H](OC)CC4)c(=N)c23)cc1 | 13 |
| N=c1c2c(-c3ccccc3)cn(Cc3ccccc3)c2ncn1[C@@H]1CCCC[C@H]1N | 14.6 |
| N=c1c2c(-c3ccccc3)c(-c3ccccc3)n(Cc3ccccc3)c2ncn1CC1CCCO1 (stereo not drawn) | 14.6 |
| N=c1c2c(-c3ccccc3)c(-c3ccccc3)n(CC3CCCCC3)c2ncn1CC1CCOCC1 | 14.6 |
| N=c1c2c(-c3ccccc3)cn(Cc3ccc(Br)cc3)c2ncn1CCCN1CCN(c2ccccc2)CC1 | 16.4 |
| N=c1c2c(-c3ccccc3)cn(Cc3ccccc3)c2ncn1C1CCC(O)CC1 (stereo not drawn) | 16.4 |
| COc1ccc(CCn2cnc3c(c(-c4ccccc4)cn3Cc3ccccc3)c2=N)cc1OC | 16.4 |
| N=c1c2c(-c3ccccc3)cn(Cc3ccccc3)c2ncn1Cc1ccco1 | 16.4 |
| N=c1c2c(-c3ccccc3)c(-c3ccccc3)n(Cc3ccccc3)c2ncn1Cc1ccc2c(c1)OCO2 | 16.4 |
| COc1ccc(Cn2c(-c3ccccc3)c(-c3ccccc3)c3c(=N)n(CC(OC)OC)cnc32)cc1 | 16.4 |
| N=c1c2c(-c3ccccc3)c(-c3ccccc3)n(CC3CCCCC3)c2ncn1[C@H]1CC[C@H](O)CC1 | 16.4 |
| N=c1c2c(-c3ccc4c(c3)OCO4)c(-c3ccc4c(c3)OCO4)n(Cc3ccccc3)c2ncn1C1CCOCC1 | 18.4 |
| N=c1c2c(-c3ccccc3)c(-c3ccccc3)n(CCc3ccccc3)c2ncn1C[C@@H]1CCCC[C@H]1O | 18.4 |
| N=c1c2c3c(n(CCc4ccccc4)c2ncn1CCCO)CCCC3 | 18.4 |
| N=c1c2c(-c3ccccc3)c(-c3ccccc3)n(Cc3ccccc3)c2ncn1CCNc1ccncc1 | 20.6 |
